Data on three compounds can be found in patent publication US8216614B2 (The Board of Regents of the University of Texas Systems, priority 2005, dated 2012).

Read-outs that look alike come from different tables or passages of the source.

Experiment [1] is described as follows: Metabolic study on preventing bone loss: serum calcium, parathyroid hormone, bone turnover markers. The format is in vivo, human. The conditions noted are these: for decline in markers of bone resorption (urinary hydroxyproline, urinary N-telopeptide, serum type 1 collagen C-telopeptide): change from placebo phase; for serum calcium / serum parathyroid hormone: last two days of two-week phase. How it is done:
During the last two days of each two-week phase, serum and 24-hour urine samples were collected for assessment of calcium metabolism, alkali load, and bone turnover markers.
Markers of bone turnover. The effect of treatment on bone resorption (destruction) was evaluated from urinary hydroxyproline, urinary N-telopeptide, and serum type 1 collagen C-telopeptide. These bone-derived substances are called markers of bone resorption, since they are elevated in states of high bone destruction.

A short description of experiment [2]: Metabolic study on prevention of kidney stone formation: alkali load, urinary stone risk factors, urinary saturation. Type of experiment: in vivo, human. The settings on record: two-week phase, 24-hour urine; for urinary ammonium / net gastrointestinal absorption of alkali: change from placebo phase; for net gastrointestinal absorption of alkali: postmenopausal women, constant diet. An excerpt: A total of eighteen postmenopausal women without kidney stones underwent four phases of study chosen in random order while they were kept on a constant diet in a metabolic ward. […] During last two days of each phase, urine was collected in 24-hour pools for biochemistry and stone risk factors.
Provision of alkali load. […] If an alkali load is delivered, the net gastrointestinal absorption of alkali (calculated from urinary electrolytes) increases and urinary ammonium decreases (as a normal response of kidneys to alkali).

For experiment [3] the following is noted: cited from earlier work.
The conditions of experiment [4]: cited from earlier work; for bone mineral density: early postmenopausal women, Ruml et al., 1999.

In the case of `O=C([O-])CC(O)(CC(=O)[O-])C(=O)[O-].[K+].[K+].[K+]` [potassium citrate], in experiment [1], the “decline in markers of bone resorption (urinary hydroxyproline, urinary N-telopeptide, serum type 1 collagen C-telopeptide)” value is on record as “least prominent”; the serum calcium entry is “did not change”; the serum parathyroid hormone entry is “did not change”. For the same compound, in experiment [2], the urinary ammonium result is “reduced”; the “net gastrointestinal absorption of alkali” value was “significantly and substantially increased”; the urinary calcium entry is “decreased”; the urinary citrate result was “increased in the same direction”. In addition, in experiment [2], the urinary oxalate result is recorded as “unaffected”; the “urinary pH” value is “significantly and substantially rose”; the “urinary saturation of calcium oxalate” value is recorded as “declined”. Further, the bone density result in experiment [3] (Pak et al., 2001) is listed as “increase bone density”. For the same compound, in experiment [3] (Sakhaee et al., 1991), the “calcium loss into urine” value is “prevent calcium loss into urine”. Also, in experiment [3] (literature), the urinary citrate result is on record as “effective in increasing urinary citrate”.

As to `O=C([O-])[O-].[Ca+2]` [calcium carbonate], in experiment [4], the bone mineral density result is “only partially effective”.

Take `O=C([O-])CC(O)(CC(=O)[O-])C(=O)[O-].O=C([O-])CC(O)(CC(=O)[O-])C(=O)[O-].[Ca+2].[Ca+2].[Ca+2]` [calcium citrate]: in experiment [1], the “decline in markers of bone resorption (urinary hydroxyproline, urinary N-telopeptide, serum type 1 collagen C-telopeptide)” value is “intermediate”; the serum calcium entry is “increased slightly”; the serum parathyroid hormone entry is on record as “significantly decreased”. For the same compound, in experiment [4] (calcium citrate supplementation, literature), the urinary citrate result is reported as “modestly increases”. In addition, the bone mineral density entry in experiment [4] was “prevent, though not increase”. Further, in experiment [2], the urinary ammonium result is recorded as “slightly but significantly decreased”, the “net gastrointestinal absorption of alkali” value is given as “marginally increased”, the urinary calcium entry was “increased” and the urinary citrate result is reported as “increased in the same direction”. For the same compound, in experiment [2], the urinary oxalate entry is on record as “decreased significantly”, the “urinary pH” value is recorded as “increased marginally” and the “urinary saturation of calcium oxalate” value is listed as “increased marginally”.
